Data from US20260183274A1, “PDK1 REGULATORY COMPOUND AND COMPOSITION CONTAINING THE SAME” (PROVIBIO CO., LTD., priority 2024, published 2026).

Key:
[1] = test system: T cells isolated from mouse spleens; experiment: T cell proliferation inhibition (CFSE flow cytometry, anti-CD3/anti-CD28 stimulation); type: cell-based; conditions: mouse spleen T cells, 3 days; for inhibition at 0.01 µM / inhibition at 0.1 µM / inhibition at 1 µM / inhibition at 10 µM / inhibition at 30 µM / inhibition at 50 µM: Mus musculus, T-cell, 72 h, read-out: Proliferation inhibition rate (%)
In short: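 Splenic T cells from 7-week-old C57BL/6 mice were MACS-isolated, CFSE-labelled, seeded at 2×10^5 cells/well and activated with anti-CD3/anti-CD28 (0.5 μg/mL each). Compound at 10 nM–50 μM (six levels, triplicate) was present for 3 days at 37 °C before flow cytometric readout of proliferation inhibition rate.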

[2] = test system: HCT-116 colon cancer cell lines; experiment: Matrigel Invasion Assay, HCT-116; type: cell-based, human; conditions: 24 hours treatment, FIG. 30
Method: To evaluate the metastasis inhibitory efficacy of the compounds of the present invention on HCT-116 colon cancer cell lines, an Invasion Assay using Matrigel was performed to assess the cells' invasion ability.
First, Matrigel was thawed on ice in RPMI-1640 medium without FBS, then diluted with DMEM at a ratio of 1:20.
The diluted Matrigel mixture was applied to the upper chamber at 100 μl per well, and 750 μl of RPMI-1640 without FBS was added to the lower chamber.
The plates were then incubated at 37° C. for 1 hour to allow the Matrigel to solidify.
After coating, the Matrigel mixture in the upper chamber was removed using a pipette, and the chamber was washed with RPMI without FBS.
Human-derived colorectal cancer cell line HCT-116, obtained from the Korean Cell Bank, was cultured in RPMI-1640 medium containing 10% FBS.
Following stabilization, the cells were harvested using Trypsin-EDTA treatment, centrifuged at 1,200 rpm for 3 minutes, the supernatant was removed, and the cells were resuspended in the same medium, the medium in the lower chamber was replaced with 750 μl of RPMI-1640 supplemented with 10% FBS, and the cells were seeded into the upper chamber at a density of 5×10^4 cells/well.
The cells were cultured for 24 hours after attachment, and then the compounds according to the present invention (G078, G085, G086, G088, G089, PBK-2024-010, PBK-2025-010, PBK-2025-013, PBK-2025-016) and the control substance DMSO were diluted and added to the upper chamber after removing the medium.
Additionally, the medium in the lower chamber was replaced with fresh RPMI-1640 containing FBS, and the culture was continued.
After an additional 24 hours, the medium was removed, and 1 ml of methanol was added for 10 minutes to fix the cells.
Subsequently, 1 ml of Hematoxylin was added and reacted for 5 minutes, followed by 1 ml of Eosin, which was reacted for 30 seconds. The sample was then washed with distilled water (DW).
After staining was complete, any remaining cells in the upper chamber were removed. Finally, the infiltrated cells were observed under a microscope, photographed, and the degree of infiltration was analyzed.

[3] = test system: Human B Lymphocyte cell line, SU-DHL-8; experiment: Relative cell viability CCK-8, SU-DHL-8; type: cell-based; conditions: for viability at 1 µM / viability at 10 µM / viability at 30 µM / viability at 50 µM: Homo sapiens, SU-DHL-8, 48 h; for viability at 1 µM: read-out: Relative cell viability (%), SU-DHL-8, 1 μM; for viability at 10 µM: read-out: Relative cell viability (%), SU-DHL-8, 10 μM; for viability at 30 µM: read-out: Relative cell viability (%), SU-DHL-8, 30 μM; for viability at 50 µM: read-out: Relative cell viability (%), SU-DHL-8, 50 μM
In short: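 Cells grown in RPMI-1640 with 10% FBS, treated with compound at several concentrations, then given CCK-8 for 4 h at 37° C. Viability expressed as percent of DMSO-treated cells.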

[4] = test system: Human Colorectal Carcinoma cell line, HCT-116; experiment: Relative cell viability CCK-8, HCT-116; type: cell-based; conditions: Homo sapiens, HCT-116, 48 hours
Method: (§1) Human-derived breast cancer cell line MCF-7, human-derived lung cancer cell line A549, human-derived colorectal cancer cell line HCT-116, human pancreatic cancer cell line AsPC-1, glioblastoma cell line A172, and melanoma cell line Malme-3M were obtained from the Korean Cell Bank. gastric cancer cell line SNU-719, and bladder cancer cell line T24 were cultured in RPMI-1640 medium containing 10% FBS.
(§2) Following stabilization, the cells were harvested using Trypsin-EDTA treatment, centrifuged at 1,200 rpm for 3 minutes, the supernatant was removed, and the cells were resuspended in the same medium. They were then seeded into a 96-well plate (Costar 96-well cell culture plate, Corning) at 100 μL per well, and the conditions were adjusted as indicated in Table 5.
(§3) The cells were cultured in a 5% CO2 incubator at 37° C. for 24 hours, and after stabilization of the cells, each plate was washed with 200 μL of PBS per well and treated with 50 μL of culture medium per well.
(§4) After that, 10 μL of CCK-8 was added to each well, and the plate was incubated again at 37° C. in a 5% CO2 incubator for 2 hours.
(§5) In other words, when the survival rate of untreated cells (DMSO) is set at 100%, the relative cell survival rate in each group treated with the drug at different concentrations is indicated.

[5] = test system: Human Pancreas Adenocarcinoma cell line, AsPC-1; experiment: Relative cell viability CCK-8, AsPC-1; type: cell-based; conditions: 48 hours; for viability at 1 µM: ASPC1, 1 μM; for viability at 10 µM: ASPC1, 10 μM; for viability at 30 µM: ASPC1, 30 μM; for viability at 50 µM: ASPC1, 50 μM
Method: as §1, §2, §3, §4, §5

[6] = test system: Human Bladder cancer cell, T24; experiment: Relative cell viability CCK-8, T24; type: cell-based; conditions: Homo sapiens, 48 h
Method: as §1, §2, §3, §4, §5

[7] = test system: Human Head and Neck cancer, Fadu; experiment: Relative cell viability CCK-8, Fadu; type: cell-based; conditions: Homo sapiens, FaDu, Fadu cells, relative to untreated cells
Method: Human-derived head and neck cancer cell line Fadu and osteosarcoma cell line Saos-2 were cultured in MEM medium containing 10% FBS, 100 U/mL penicillin, and 100 μg/mL streptomycin.
as §2, §3, §4, §5

[8] = test system: Human Gastric cancer cell, SNU-719; experiment: Relative cell viability CCK-8, SNU-719; type: cell-based; conditions: 48 hours
Method: as §1, §2, §3, §4, §5

[9] = 48 hours, untreated (DMSO) = 100%

With “12-(4-hydroxypiperazin-1-yl)dodecyl-N-(6-aminopurazin-2-yl) carboxamide [Compound 10]” the “Proliferation inhibition rate (%)” value ([1]; compound 10 nM) was 100.00%, the “Proliferation inhibition rate (%)” value ([1]; compound 100 nM) was 100.00% and the “Proliferation inhibition rate (%)” value ([1]; compound 1 μM) was 100.00%. The “Proliferation inhibition rate (%)” value ([1]; compound 10 μM) was 100.00%, the “Proliferation inhibition rate (%)” value ([1]; compound 30 μM) was 100.00% and the “Proliferation inhibition rate (%)” value ([1]; compound 50 μM) was 100.00%. For the same molecule, the “Number of infiltrated cells (invasion)” value [2] was “reduction in the number of infiltrated cells”.

Work on `Nc1ncccc1C(=O)NCCCCCCCCCCCCN1CCSC1` [Compound 31, 2-Amino-N-(12-(thiazolidin-3-yl)dodecyl)nicotinamide] yielded an inhibition at 0.01 µM ([1]; compound 10 nM) of 8.01%, an inhibition at 0.1 µM ([1]; compound 100 nM) of 77.2% and an inhibition at 1 µM ([1]; compound 1 μM) of 100%. For the same molecule, the inhibition at 10 µM ([1]; compound 10 μM) was 100%, the inhibition at 30 µM ([1]; compound 30 μM) was 100% and the inhibition at 50 µM ([1]; compound 50 μM) was 100%. It also gave a viability at 1 µM [3, 9] of 5.57%, a viability at 10 µM [3, 9] of 4.36% and a viability at 30 µM [3, 9] of 1%. For the same molecule, the viability at 50 µM [3, 9] was 0.23%, the viability at 1 µM [4] was 11.6% and the viability at 10 µM [4] was 13.2%. For the same molecule, the viability at 30 µM [4] was 12.3%, the viability at 50 µM [4] was 12% and the viability at 1 µM [5] was 40.8%. The viability at 10 µM [5] was 41%, the viability at 30 µM [5] was 39.4% and the viability at 50 µM [5] was 36.6%. It also gave a viability at 1 µM [6] of 7.59%, a viability at 10 µM [6] of 7.06% and a viability at 30 µM [6] of 7.58%. The viability at 50 µM [6] was 6.92%.

With `CN(C)C1CCCCN(CCCCCCCCCCCCNC(=O)c2cccnc2N)C1` (stereo not shown) [Compound 45, 2-Amino-N-(12-(3-(dimethylamino)azepan-1-yl)dodecyl)nicotinamide] the inhibition at 0.01 µM ([1]; compound 10 nM) was 0.16%, the inhibition at 0.1 µM ([1]; compound 100 nM) was 100% and the inhibition at 1 µM ([1]; compound 1 μM) was 100%. It also gave an inhibition at 10 µM ([1]; compound 10 μM) of 100%, an inhibition at 30 µM ([1]; compound 30 μM) of 100% and an inhibition at 50 µM ([1]; compound 50 μM) of 100%. For the same molecule, the viability at 1 µM [3, 9] was 1.91%, the viability at 10 µM [3, 9] was 1.27% and the viability at 30 µM [3, 9] was 0.53%. For the same molecule, the “Relative cell viability (%), SU-DHL-8” value ([3]; human, 48 h, 50 µM) was −1.31%, the viability at 1 µM [6] was 9.91% and the viability at 10 µM [6] was 11%. The viability at 30 µM [6] was 9.95%, the viability at 50 µM [6] was 9.04% and the viability at 1 µM ([7]; 1 μM) was 29.8%. It also gave a viability at 10 µM ([7]; 10 μM) of 74.1%, a viability at 30 µM ([7]; 30 μM) of 60% and a viability at 50 µM ([7]; 50 μM) of 18.2%.

In the case of `CC(C)(C)OC(=O)N[C@H]1CCN(CCCCCCCCCCCCNC(=O)c2cccnc2N)C1` [Compound 49, tert-Butyl(S)-(1-(12-(2-aminonicotinamido)dodecyl)pyrrolidin-3-yl) carbamate], the “Proliferation inhibition rate (%)” value ([1]; compound 10 nM) is reported as −22.61%, the “Proliferation inhibition rate (%)” value ([1]; compound 100 nM) is reported as 100.00% and the “Proliferation inhibition rate (%)” value ([1]; compound 1 μM) is reported as 100.00%. The “Proliferation inhibition rate (%)” value ([1]; compound 10 μM) was 100.00%, the “Proliferation inhibition rate (%)” value ([1]; compound 30 μM) was 100.00% and the “Proliferation inhibition rate (%)” value ([1]; compound 50 μM) was 100.00%. For the same molecule, the “Relative cell viability (%), SU-DHL-8” value ([3]; 1 μM, 48 hours, untreated (DMSO) = 100%) was 8.93%, the “Relative cell viability (%), SU-DHL-8” value ([3]; 10 μM, 48 hours, untreated (DMSO) = 100%) was 8.02% and the “Relative cell viability (%), SU-DHL-8” value ([3]; 30 μM, 48 hours, untreated (DMSO) = 100%) was 7.48%. The “Relative cell viability (%), SU-DHL-8” value ([3]; 50 μM, 48 hours, untreated (DMSO) = 100%) was 4.09% and the “Number of infiltrated cells (invasion)” value [2] was “reduction in the number of infiltrated cells”.

For `Nc1ncccc1C(=O)NCCCCCCCCCCCCN1CC(F)C1` [Compound 52, 2-Amino-N-(12-(3-fluoroazetidin-1-yl)dodecyl)nicotinamide], the inhibition at 0.01 µM ([1]; compound 10 nM) was 11.3%, the inhibition at 0.1 µM ([1]; compound 100 nM) was 13.8% and the inhibition at 1 µM ([1]; compound 1 μM) was 100%. The inhibition at 10 µM ([1]; compound 10 μM) was 100%, the inhibition at 30 µM ([1]; compound 30 μM) was 100% and the inhibition at 50 µM ([1]; compound 50 μM) was 100%. It also gave a viability at 1 µM [3, 9] of 14.2%, a viability at 10 µM [3, 9] of 11.6% and a viability at 30 µM [3, 9] of 10.1%. It also gave a viability at 50 µM [3, 9] of 9.15%, a viability at 1 µM [4] of 33.6% and a viability at 10 µM [4] of 13.3%. For the same molecule, the viability at 30 µM [4] was 12.7%, the viability at 50 µM [4] was 11.8% and the viability at 1 µM ([8]; 1 μM) was 41.2%. It also gave a viability at 10 µM ([8]; 10 μM) of 35.9%, a viability at 30 µM ([8]; 30 μM) of 35.5% and a viability at 50 µM ([8]; 50 μM) of 35%. For the same molecule, the “Number of infiltrated cells (invasion)” value [2] was “reduction in the number of infiltrated cells”.

In the case of `Nc1ncccc1C(=O)NCCCCCCCCCCCCN1CCc2ccccc21` [Compound 89, 2-Amino-N-(12-(indolin-1-yl)dodecyl)nicotinamide], the inhibition at 0.01 µM ([1]; compound 10 nM) is reported as -3.34%, the inhibition at 0.1 µM ([1]; compound 100 nM) is reported as 100% and the inhibition at 1 µM ([1]; compound 1 μM) is reported as 100%. The inhibition at 10 µM ([1]; compound 10 μM) was 100%, the inhibition at 30 µM ([1]; compound 30 μM) was 100% and the inhibition at 50 µM ([1]; compound 50 μM) was 100%. It also gave a viability at 1 µM [3, 9] of 1.33%, a viability at 10 µM [3, 9] of 0.82% and a viability at 30 µM [3, 9] of 0.48%. The “Relative cell viability (%), SU-DHL-8” value ([3]; human, 48 h, 50 µM) was −0.86%, the viability at 1 µM [5] was 30.3% and the viability at 10 µM [5] was 19.2%. For the same molecule, the viability at 30 µM [5] was 17.8% and the viability at 50 µM [5] was 17.8%.
